Experimental data reported in patent US7094869B2, “Low molecular weight peptidomimetic growth hormone secretagogues” (Genentech, Inc., priority 1994, dated 2006).
Where two headings read alike, the source gives them in different places. Non-standard residues stand in square brackets, D forms with d. Residues, ends and D or L forms follow the SMILES beside them. ξ: configuration not given here. *: point of attachment. dNMe2Nal = CN[C@H](Cc1ccc2ccccc2c1)C(=O)O; 2Nal = N[C@@H](Cc1ccc2ccccc2c1)C(=O)O; d2Nal = N[C@H](Cc1ccc2ccccc2c1)C(=O)O; ξ2Nal = NC(Cc1ccc2ccccc2c1)C(=O)O; Isonicotinoyl = O=C(c1ccncc1)*; Ac6c = NC1(C(=O)O)CCCCC1; Morpholide = C1CN(*)CCO1; Inp = O=C(O)C1CCNCC1; ξK = NCCCCC(N)C(=O)O; Ahp = NCCCCCCC(=O)O; Ava = NCCCCC(=O)O; GABA = NCCCC(=O)O; βAla = NCCC(=O)O

Tests used:
rat pituitary cells = rat pituitary cells (Rattus norvegicus, UniProt O08725); details: read-out: PIT Cell EC50, GH release, 15 min incubation
Chain of rat pituitary cells (O08725 whole entry, the tested form may be a part): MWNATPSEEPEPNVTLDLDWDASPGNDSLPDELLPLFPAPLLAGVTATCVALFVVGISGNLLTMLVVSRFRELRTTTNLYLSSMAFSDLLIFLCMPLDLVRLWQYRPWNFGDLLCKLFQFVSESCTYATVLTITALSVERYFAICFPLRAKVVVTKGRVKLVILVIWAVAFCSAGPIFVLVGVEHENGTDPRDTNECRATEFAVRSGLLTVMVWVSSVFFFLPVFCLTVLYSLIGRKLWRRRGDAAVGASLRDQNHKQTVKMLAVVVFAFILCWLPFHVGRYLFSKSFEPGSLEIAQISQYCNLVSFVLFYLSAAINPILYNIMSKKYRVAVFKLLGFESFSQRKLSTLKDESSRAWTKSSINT
Protocol: Pituitaries from ten rats were removed, the posterior pituitary discarded and the anterior pituitary placed in Hanks' Balanced Salt Solution (HBSS: without calcium chloride, w/o magnesium chloride, w/o magnesium sulfate; Gibco) containing 20 mM HEPES (Gibco) and 100 U/ml penicillin streptomycin (PS: JRH Biosciences). Under sterile conditions, pituitaries were rinsed twice then minced into small fragments with a razor blade. […] After the incubation, fragments were triturated to yield small clumps and single cells. The cells were centrifuged 1000× g for 5 min, resuspended, counted and plated at a final cell concentration of 100,000 cells/ml. Incubation media was DME low glucose media w/NaHCO3 (Gibco) containing 20 mM hepes, 100 U/ml PS and 10% FBS (Hyclone A-111-L). Cells were plated at 0.5 ml per well in 48 well plates (Falcon) and incubated at 37° C. in 5% C02 for three days. For challenges to determine release of other pituitary hormones cells were plated at 200,000 cells per ml with 2 ml per well of a Swell plate (Corning). Challenge: A (inip)bbFK-NH2 stock (or other GHRP) concentration of 1 mM was made in DMSO and diluted with warmed media approximately 30 min prior to use. The highest concentration of DMSO in media was 0.1%. Stock solutions (1 mM) of rat GHRH, somatostatin (Sigma) and GHRP antagonist HwkWfK were made fresh in media and diluted appropriately. The media used in all challenges and washing steps was DME low glucose with 20 mM Hepes, 100 U/ml PS, 10% FBS. Media was warmed to 37° C. and gassed by placing it into the incubator prior to challenge. On day three, the media was discarded and fresh media (approximately 1 ml) added for the first of three washes. After the last wash, the plate was placed back in the incubator for a 15 min pre-incubation. Then cells were washed 2× (with warmed and gassed media) and fresh 0.5 ml media were added for the second 15 min. pre-incubation. After the second pre-incubation cells were washed 2× as above and 0.5 ml of control and test solutions were added for a final 15 min incubation. After this incubation, the media were removed for subsequent GH ELISA. GH ELISA: A two-site ELISA was used to determine rat GH concentration in the media. […] After blocking and washing, standard (rat GH reference preparation: Parlow) and challenge media is diluted 1:20 prior to GH assay were added for a 1 hr room temperature incubation. STATISTICS: The mean for each group was determined and analyzed by one-way analysis of variance with a post-hoc Student-Newman-Keuls. Significance is defined as P<0.05. The EC50 was calculated using a 4-parameter curve-fit program (Kaleidagraph). Three to four independent EC50s were used to derive the mean and SEM. RIA of pituitary hormones: LH, FSH, TSH, and Prolactin were determined with commercially available kits from Amersham, and ACTH levels were determined by a RIA kit from ICN. CALCIUM FLUX EXPERIMENT: Pituitary cells were plated on fibronectin (Collaborative Research) coated two-chambered slide wells (Nunc). After four days in monolayer culture cells were rinsed three times with HBSS (Gibco) in 1% BSA and 15 mM HEPES and then incubated for 30 min at 37° C. with 5 μM Indo-1 AM (Molecular Probes, Eugene) in HBSS also containing 1% pluronic F127 (Molecular Probes). The cells were rinsed once and fresh media added for RT incubation. […] C^++ flux was imaged with a Meridian ACAS 570 using stage scanning at 21 second intervals.

growth hormone secretion = experiment: GHRP induced growth hormone secretion, intravenous administration (Rat IV); format: in vivo; details: iv injection, serum GH 10 min after injection
Protocol: Immature weanling female Sprague Dawley rats were purchased from Charles River Labs (Portage, […].) and group housed with water and food available ad libitum. When the rats were 24-30 days old (weighing 50-90 g) they were anesthetized with pentobarbitone (4 mg in 0.5 ml, approximately 60 mg/kg) given by intraperitoneal injection. The rats were then placed briefly on a heated pad, to distend their tail veins, and given an intravenous tail vein injection of the peptides 20 minutes after receiving the anesthetic. The intravenous injection was of 0.1 ml using a 1 ml syringe. The injections contained graded doses of peptides or the vehicle (vehicle for all peptides given intravenously was a buffer of 20 mM sodium acetate, 45 g/l mannitol, pH 5.0). Ten minutes after the intravenous injection blood was taken by cardiac puncture, using a 3 ml syringe, and the rats were then sacrificed.
The blood was then clotted on ice, centrifuged, serum decanted and frozen for subsequent analysis using the rat GH ELISA described elsewhere in the application. For the rat GH ELISA the serum was diluted 1:50 or 1:250, depending on the expected serum GH concentrations achieved, and assayed in duplicate.

[1] = Table III, formula IV compounds
[2] = Table IV, formula III compounds

| Compound | EC50 (rat pituitary cells; [1]) | RAT IV ED50 (growth hormone secretion; Table III) | EC50 (rat pituitary cells; [2]) | RAT IV ED50 (growth hormone secretion; Table IV) | further results |
| --- | --- | --- | --- | --- | --- |
| NCCCCC(=O)N[C@H](Cc1ccc2ccccc2c1)C(=O)N[C@H](Cc1ccc2ccccc2c1)C(=O)N[C@@H](Cc1ccccc1)C(=O)N[C@H](CCCCN)C(N)=O [(Ava) b b F k amide] (H-[Ava][d2Nal][d2Nal]F[dK]-NH2) | 17 nM | 33.3 µg |  |  |  |
| NCCCNC(=O)[C@H](Cc1ccc2ccccc2c1)NC(=O)[C@H](Cc1ccc2ccccc2c1)NC(=O)[C@H](N)Cc1ccc2ccccc2c1 [b B B ram, DβNal-βNal-βNal-[N-(3-aminopropyl)] amide] |  |  |  |  | EC50 (rat pituitary cells; Table VI, retroinverso compounds of formula V): 15.2 nM; RAT IV ED50 (growth hormone secretion; Table VI): 100 µg |
| N[C@H]1CC[C@H](NC(=O)[C@@H](Cc2ccc3ccccc3c2)NC(=O)[C@@H](Cc2ccc3ccccc3c2)NC(=O)C2CCNCC2)CC1 [(inip) b b cxa] |  |  | 14 nM | 10 µg |  |
| NCCCCC(=O)N[C@H](Cc1ccc2ccccc2c1)C(=O)N[C@H](Cc1ccc2ccccc2c1)C(=O)N[C@@H](Cc1ccc2ccccc2c1)C(=O)N[C@@H](CCCCN)C(N)=O [(Ava) b b B K amide] (H-[Ava][d2Nal][d2Nal][2Nal]K-NH2) | 0.7 nM | 50 µg |  |  |  |
| CN(C(=O)C1CCNCC1)[C@H](Cc1ccc2ccccc2c1)C(=O)N[C@H](Cc1ccc2ccccc2c1)C(=O)N[C@@H](Cc1ccccc1)C(=O)N1CCOCC1 [(inip) nmb b F mor] (H-[Inp][dNMe2Nal][d2Nal]F-Morpholide) | 0.8 nM | 10 µg |  |  |  |
| NC(=O)C1(NC(=O)[C@@H](Cc2ccc3ccccc3c2)NC(=O)[C@@H](Cc2ccc3ccccc3c2)NC(=O)C2CCNCC2)CCCCC1 [(inip) b b Abx amide] (H-[Inp][d2Nal][d2Nal][Ac6c]-NH2) |  |  | 13 nM | 100 µg |  |
| NCCCC[C@H](NC(=O)[C@H](Cc1ccccc1)NC(=O)[C@@H](Cc1ccc2ccccc2c1)NC(=O)[C@@H](Cc1ccc2ccccc2c1)NC(=O)c1ccncc1)C(N)=O [(pyc) b b F K amide] (Isonicotinoyl-[d2Nal][d2Nal]FK-NH2) | > 300 nM | 200 µg |  |  |  |
| CN(C(=O)C(Cc1ccc2ccccc2c1)NC(=O)C1CCNCC1)[C@H](Cc1ccc2ccccc2c1)C(=O)N[C@@H](Cc1ccccc1)C(=O)NC(CCCCN)C(N)=O (stereo partly drawn) [(inip) b nmb F K amide, (inip)-DβNal-(N-Me-DβNal)-Phe-Lys-amide] (H-[Inp][ξ2Nal][dNMe2Nal]F[ξK]-NH2) | 0.2 nM | 1 µg |  |  |  |
| NC(=O)CCNC(=O)[C@H](Cc1ccccc1)NC(=O)[C@@H](Cc1ccc2ccccc2c1)NC(=O)[C@@H](Cc1ccc2ccccc2c1)NC(=O)C1CCNCC1 [(inip) b b F bA amide] (H-[Inp][d2Nal][d2Nal]F[βAla]-NH2) | 0.2 nM | 2 µg |  |  |  |
| CN(C(=O)C1CCNCC1)[C@H](Cc1ccc2ccccc2c1)C(=O)N[C@H](Cc1ccc2ccccc2c1)C(=O)N[C@@H](Cc1ccccc1)C(=O)O [(inip) nmb b F acid] (H-[Inp][dNMe2Nal][d2Nal]F-OH) |  |  | 1.4 nM | 5 µg |  |
| NC(=O)[C@H](Cc1ccc2ccccc2c1)NC(=O)[C@@H](Cc1ccc2ccccc2c1)NC(=O)[C@@H](Cc1ccc2ccccc2c1)NC(=O)C1CCNCC1 [(inip) b b B amide] (H-[Inp][d2Nal][d2Nal][2Nal]-NH2) |  |  | 0.1 nM | 50 µg |  |
| NCCCCC(=O)N[C@H](Cc1ccc2ccccc2c1)C(=O)N[C@H](Cc1ccc2ccccc2c1)C(=O)N[C@@H](Cc1ccccc1)C(=O)NCC(N)=O [(Ava) b b F G amide] (H-[Ava][d2Nal][d2Nal]FG-NH2) | 7.2 nM | 50 µg |  |  |  |
| NCCCCC(=O)N[C@H](Cc1ccc2ccccc2c1)C(=O)N[C@H](Cc1ccc2ccccc2c1)C(=O)N[C@@H](Cc1ccccc1)C(=O)N[C@@H](CC(N)=O)C(N)=O [(Ava) b b F N amide] (H-[Ava][d2Nal][d2Nal]FN-NH2) | 7.7 nM | 200 µg |  |  |  |
| NCCCCC(=O)N[C@H](Cc1ccc2ccccc2c1)C(=O)N[C@H](Cc1c[nH]c2ccccc12)C(=O)N[C@@H](Cc1ccccc1)C(=O)N[C@@H](CCCCN)C(N)=O [(Ava) b w F K amide] (H-[Ava][d2Nal][dW]FK-NH2) | 4.6 nM | 11.8 µg |  |  |  |
| NCCCCCCC(=O)N[C@H](Cc1ccc2ccccc2c1)C(=O)N[C@H](Cc1ccc2ccccc2c1)C(=O)N[C@@H](Cc1ccccc1)C(=O)N[C@@H](CCCCN)C(N)=O [(ahp) b b F K amide] (H-[Ahp][d2Nal][d2Nal]FK-NH2) | 34.3 nM | 100 µg |  |  |  |
| O=C(N[C@H](Cc1ccc2ccccc2c1)C(=O)N[C@H](Cc1ccc2ccccc2c1)C(=O)N[C@@H](Cc1ccc(O)cc1)C(=O)O)C1CCNCC1 [(inip) b b Y acid] (H-[Inp][d2Nal][d2Nal]Y-OH) |  |  | 5 nM | 10 µg |  |
| C[C@@H](N)C(=O)N[C@H](Cc1ccc2ccccc2c1)C(=O)N[C@H](Cc1ccc2ccccc2c1)C(=O)N[C@@H](Cc1ccccc1)C(=O)N[C@@H](CCCCN)C(N)=O [a b b F K amide] (H-[dA][d2Nal][d2Nal]FK-NH2) | 3.5 nM | 10 µg |  |  |  |
| CN(C(=O)[C@@H](Cc1ccc2ccccc2c1)NC(=O)C1CCNCC1)[C@@H](CO)Cc1ccc2ccccc2c1 [(inip) b nbol, (inip)-DβNal-(N-Methyl-D-β-naphthylalanol)] |  |  |  |  | EC50 (rat pituitary cells; Table V, formula II compounds): 3 nM; RAT IV ED50 (growth hormone secretion; Table V): 20 µg |
| CN(C(=O)[C@@H](Cc1ccc2ccccc2c1)NC(=O)CCCCN)[C@H](Cc1ccc2ccccc2c1)C(=O)N[C@@H](Cc1ccccc1)C(=O)N[C@@H](CCCCN)C(N)=O [(Ava) b nmb F K amide] (H-[Ava][d2Nal][dNMe2Nal]FK-NH2) | 3.8 nM | 100 µg |  |  |  |
| CN(C(=O)CCCN)[C@H](Cc1ccc2ccccc2c1)C(=O)N[C@H](Cc1ccc2ccccc2c1)C(=O)N[C@@H](Cc1ccccc1)C(N)=O [(Ab) nmb b F amide] (H-[GABA][dNMe2Nal][d2Nal]F-NH2) |  |  | 0.2 nM | 20 µg |  |
| COC(=O)[C@@H](Cc1ccc2ccccc2c1)NC(=O)[C@@H](Cc1ccc2ccccc2c1)NC(=O)C1CCNCC1 [(imp) b b Me ester] (H-[Inp]-[d2Nal]-[d2Nal]-OMe) |  |  |  |  | EC50 (rat pituitary cells; Table V, formula II compounds): 5 nM; RAT IV ED50 (growth hormone secretion; Table V): 100 µg |
| O=C(N[C@H](Cc1ccc2ccccc2c1)C(=O)N[C@H](Cc1ccc2ccccc2c1)C(=O)NC1CCNCC1)C1CCNCC1 [(inip) b b api] |  |  | 2.7 nM | 25 µg |  |
| NCCCC[C@H](NC(=O)[C@H](Cc1ccccc1)NC(=O)[C@@H](Cc1c[nH]c2ccccc12)NC(=O)[C@@H](Cc1ccc2ccccc2c1)NC(=O)[C@@H](N)Cc1c[nH]cn1)C(N)=O [H b w F K amide] (H-H[d2Nal][dW]FK-NH2) | 6.8 nM | 4.2 µg |  |  |  |
